Results published in US7169559B2, “LDL receptor-related proteins 1 and 2 and treatment of bone or cartilage conditions” (Fonterra Corporate Research and Development Ltd., priority 2002, dated 2007).

What was measured:
[1] = tested on: cultured osteoblastic cells; experiment: osteoblast proliferation (mitogenic/osteogenic effect); format: cell-based, rat, mouse, and human
Description: Osteoblasts were isolated from 20-day old fetal rat calvariae as previously described (Cornish et al. (1999) Amer. J. Physiol-Endocrinol. Metab. 277:E779–E783). Briefly, calvariae were excised and the frontal and parietal bones, free of suture and periosteal tissue, were collected. After washing, the calvariae were treated twice with 3 mL of 1 mg/mL collagenase for 7 minutes at 37° C. After discarding the supernatants from these two digestions, the calvariae were treated a further twice with 3 mL of 2 mg/mL collagenase (30 mins, 37° C.). The supernatants of the latter two digestions were pooled, centrifuged, and the cells washed. Cells were grown to confluence and then subcultured into 24 well plates. Cells were growth arrested in minimum essential medium (MEM)/0.1% bovine serum albumin for 24 h before harvest.
The human osteoblast-like osteosarcoma cell line SaOS-2 was maintained in DMEM (GIBCO 12100-046) supplemented with 2.2 g/L NaHCO3, 10% FBS, and 10 ml/L penicillin-streptomycin (GIBCO 15140-122). Cells were plated in 75 cm^2 flasks and when confluent used for total RNA isolation or proliferation assays.

[2] = tested on: bacterial; settings: cited from earlier work

| Substance | mitogenic effect on osteoblasts [1] | osteogenic effect / osteogenic activity [1] | bacterial killing [2] |
| --- | --- | --- | --- |
| Transferrin: Transferrin, compared with lactoferrin as mitogen on osteoblasts [reference compound] | not a potent mitogen | – | – |
| Lactoferricin | – | only a modest osteogenic effect | effective in bacterial killing |
